Values quoted from earlier work, collected in patent publication US20080214876A1, “Process for Preparation of Pharmaceutically Pure Anhydrous Calcipotriol” (INSTYTUT FARMACEUTYCZNY, priority 2004, published 2008).

Legend:
epidermal keratinocytes = conditions: literature: Castelijins et al., Acta Derm. Venereol. 79, 111 (1999)
calcium metabolism = conditions: rats; relative to calcitriol; Binderup, Bramm, Biochem. Pharmacol. 37, 889 (1988)
[1] = pharmaceutical formulations

Compound | activity in inhibiting undesirable proliferation of epidermal keratinocytes (epidermal keratinocytes) | weaker effect on calcium metabolism compared to calcitriol (calcium metabolism) | stability in some solutions [1]
C=C1/C(=C\C=C2/CCC[C@]3(C)[C@@H]([C@H](C)CCCC(C)(C)O)CC[C@@H]23)C[C@@H](O)C[C@@H]1O [calcitriol, 1,25-dihydroxycholecalciferol] | strong activity |  | 
C=C1/C(=C\C=C2/CCC[C@]3(C)[C@@H]([C@H](C)/C=C/[C@@H](O)C4CC4)CC[C@@H]23)C[C@@H](O)C[C@@H]1O [calcipotriol, (1α,3β3,5Z,7E,22E,24S)-24-cyclopropyl-9,10-secochola-5,7,10(19),22-tetraene-1,3,24-triol] | strong activity | 100-200 fold | poor stability
C=C1/C(=C\C=C2/CCC[C@]3(C)[C@@H]([C@H](C)CC[C@@H](O)C(C)C)CC[C@@H]23)C[C@@H](O)C[C@@H]1O [tacalcitol, 1α,24R-dihydroxycholecalciferol] | strong activity |  | 
